For the series, the target named is T1, human TLR9 (Homo sapiens, UniProt Q9NR96).
T1 construct: HA; host or cells: 293XL-hTLR9-HA (HEK293)
T1 sequence (Q9NR96 26-1032): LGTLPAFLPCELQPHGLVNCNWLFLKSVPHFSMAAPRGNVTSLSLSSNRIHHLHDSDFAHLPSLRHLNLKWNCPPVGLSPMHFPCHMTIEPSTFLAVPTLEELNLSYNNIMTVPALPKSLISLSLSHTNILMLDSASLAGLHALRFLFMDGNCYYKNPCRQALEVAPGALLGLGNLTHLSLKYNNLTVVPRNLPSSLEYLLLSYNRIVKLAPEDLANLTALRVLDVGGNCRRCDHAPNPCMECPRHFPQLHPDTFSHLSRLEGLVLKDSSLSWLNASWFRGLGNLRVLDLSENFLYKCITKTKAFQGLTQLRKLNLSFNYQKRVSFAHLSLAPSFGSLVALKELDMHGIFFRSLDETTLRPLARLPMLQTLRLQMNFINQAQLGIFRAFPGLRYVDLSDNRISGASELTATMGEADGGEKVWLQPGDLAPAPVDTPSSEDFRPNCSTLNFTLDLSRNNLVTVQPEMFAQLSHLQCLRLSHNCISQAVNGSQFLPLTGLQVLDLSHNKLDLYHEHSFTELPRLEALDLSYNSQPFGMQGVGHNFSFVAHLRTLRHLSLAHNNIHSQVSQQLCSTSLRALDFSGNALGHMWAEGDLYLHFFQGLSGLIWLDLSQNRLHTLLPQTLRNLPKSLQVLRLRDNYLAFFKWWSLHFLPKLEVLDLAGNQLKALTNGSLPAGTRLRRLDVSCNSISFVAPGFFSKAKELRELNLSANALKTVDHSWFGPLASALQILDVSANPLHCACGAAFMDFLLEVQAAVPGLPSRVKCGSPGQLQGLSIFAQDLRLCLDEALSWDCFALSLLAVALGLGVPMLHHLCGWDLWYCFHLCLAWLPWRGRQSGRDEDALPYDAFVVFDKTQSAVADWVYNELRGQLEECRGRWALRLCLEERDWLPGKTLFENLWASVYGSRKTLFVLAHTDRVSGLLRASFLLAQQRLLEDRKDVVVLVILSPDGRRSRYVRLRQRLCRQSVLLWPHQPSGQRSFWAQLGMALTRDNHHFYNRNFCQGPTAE
The series is described as follows: HEK-TLR9 NF-κB-luciferase reporter, ODN2006 stimulation. In kind it is cell-based. As to conditions: for TLR9 100 nM: MOE-modified ASO at 100 nM; for TLR9 100 nM / TLR9 500 nM: averaged NF-κB-Luciferase relative to ODN2006 condition; for TLR9 500 nM: MOE-modified ASO at 500 nM; for TLR9-500 nM: averaged NF-κB-Luciferase relative to ODN2006: HEK-TLR9, 500 nM ASO 45 min, then 200 nM ODN2006 overnight, percentage of ODN2006 only. In general terms: Reporter assays use an easily measured gene product as a stand-in for the process of interest.

In the oligonucleotide strings, read from the 5' end, every base follows the letter of its sugar. An asterisk marks phosphorothioate; unmarked linkages are phosphodiester. Other units and linkages are bracketed, terminal groups are in braces. A string of capitals states the bases alone. d = 2'-deoxy (DNA); m = 2'-O-methyl

On to “AGTCGTAGTTGCTTCCTAAC (antisense; 2'-MOE modified, pattern not given here) [MB21D1-1181 MOE]”, for which the “TLR9 100 nM” value came to 0.527 and the “TLR9 500 nM” value was 0.341.

With “ATGCCATCCACTTGATAGGC (antisense; 2'-MOE modified, pattern not given here) [EGFR-2874 MOE]”, the “TLR9 100 nM” value was 0.712 and the “TLR9 500 nM” value is reported as 0.589.

In the case of “CGGAGGTCTTGGCTTCGTGG (antisense; 2'-MOE modified, pattern not given here) [MB21D1-525 MOE]”, the “TLR9 100 nM” value amounted to 0.938 and the “TLR9 500 nM” value is reported as 0.556.

For the substance “CGGCATCCACCACGTCGTCC (antisense; 2'-MOE modified, pattern not given here) [EGFR-3267 MOE]”, the “TLR9 100 nM” value stood at 0.449 and the “TLR9 500 nM” value is 0.373.

With “GCCCATCCATGAGGTCCTGG (antisense; 2'-MOE modified, pattern not given here) [CTNN2B-2545 MOE]”, the “TLR9 100 nM” value was 0.324 and the “TLR9 500 nM” value was determined as 0.175.

On to “GCTGACAAAGATTCACTGGT (antisense; 2'-MOE modified, pattern not given here) [HPRT-1353 MOE]”, for which the “TLR9 100 nM” value amounted to 0.653 and the “TLR9 500 nM” value is recorded as 0.654.

As for “GGGTATCGAAAGAGTCTGGA (antisense; 2'-MOE modified, pattern not given here) [EGFR-3908 MOE]”, the “TLR9 100 nM” value is given as 0.349 and the “TLR9 500 nM” value is 0.203.

Take “GGTTTTGGCTGGGATCAAGT (antisense; 2'-MOE modified, pattern not given here) [CAMSAP1-4697 MOE]”: the “TLR9 100 nM” value is given as 0.381 and the “TLR9 500 nM” value is recorded as 0.200.

Consider “GTCCAAGATCAGCAGTCTCA (antisense; 2'-MOE modified, pattern not given here) [CTNN2B-2341 MOE]”, for which the “TLR9 100 nM” value is 0.430 and the “TLR9 500 nM” value is recorded as 0.535.

In the case of “TCCGGCCTCGGAAGCTCTCT (antisense; 2'-MOE modified, pattern not given here) [MB21D1-168 MOE]”, the “TLR9 100 nM” value is given as 0.242 and the “TLR9 500 nM” value came out at 0.000.

In the case of “TGGCAGGCTCAGTGATGTCT (antisense; 2'-MOE modified, pattern not given here) [CTNN2B-1642 MOE]”, the “TLR9 100 nM” value stood at 0.722 and the “TLR9 500 nM” value turned out to be 0.479.

Turning to “TGGGCTGGAATCCGAGTTAT (antisense; 2'-MOE modified, pattern not given here) [EGFR-4705 MOE]”, the “TLR9 100 nM” value was 0.443 and the “TLR9 500 nM” value is 0.241.

With “TGGGTTACGGCTCAGTATGG (antisense; 2'-MOE modified, pattern not given here) [CAMSAP1-4295 MOE]”, the “TLR9 100 nM” value stood at 0.478 and the “TLR9 500 nM” value is 0.228.

In the case of “TTTGCACACTTCGTACCCAA (antisense; 2'-MOE modified, pattern not given here) [CAMSAP1-4916 MOE]”, the “TLR9 100 nM” value was found to be 0.735 and the “TLR9 500 nM” value worked out at 0.514.

Turning to “mA*mA*mA*mA*mG*A*T*T*A*T*C*T*T*C*T*mU*mU*mU*mA*mA (AAAAGATTATCTTCTUUUAA; sugars from the 5' end m5 d10 m5, all phosphorothioate, methylation of C not given here) [[CDKN2B-AS1]2133]”, the “TLR9-500 nM: averaged NF-κB-Luciferase relative to ODN2006” value is 80.95%.

Turning to “mA*mA*mA*mA*mU*A*A*G*G*G*G*A*A*T*A*mG*mG*mG*mG*mA (mA*mA*mA*mA*mU*dA*dA*dG*dG*dG*dG*dA*dA*dT*dA*mG*mG*mG*mG*mA; antisense) [[CDKN2B-AS1]79]”, the “TLR9-500 nM: averaged NF-κB-Luciferase relative to ODN2006” value is reported as 67.44%.

Consider “mA*mA*mA*mG*mA*T*T*A*T*C*T*T*C*T*T*mU*mU*mA*mA*mU (mA*mA*mA*mG*mA*dT*dT*dA*dT*dC*dT*dT*dC*dT*dT*mU*mU*mA*mA*mU) [[CDKN2B-AS1]2132]”, for which the “TLR9-500 nM: averaged NF-κB-Luciferase relative to ODN2006” value stood at 63.14%.

Regarding “mA*mA*mA*mU*mG*T*C*C*T*G*G*C*C*C*T*mC*mA*mC*mU*mG (mA*mA*mA*mU*mG*dT*dC*dC*dT*dG*dG*dC*dC*dC*dT*mC*mA*mC*mU*mG) [[LINC-PINT]148.1]”, the “TLR9-500 nM: averaged NF-κB-Luciferase relative to ODN2006” value was 46.72%.

In the case of “mA*mA*mG*mA*mU*T*A*T*C*T*T*C*T*T*T*mU*mA*mA*mU*mU (mA*mA*mG*mA*mU*dT*dA*dT*dC*dT*dT*dC*dT*dT*dT*mU*mA*mA*mU*mU) [[CDKN2B-AS1]2131]”, the “TLR9-500 nM: averaged NF-κB-Luciferase relative to ODN2006” value was 59.77%.

With “mA*mA*mG*mG*mU*G*G*C*C*A*C*A*G*G*C*mA*mA*mC*mG*mU (mA*mA*mG*mG*mU*dG*dG*dC*dC*dA*dC*dA*dG*dG*dC*mA*mA*mC*mG*mU; antisense) [[CDKN2B-AS1]2198]”, the “TLR9-500 nM: averaged NF-κB-Luciferase relative to ODN2006” value is listed as 84.28%.

As to “mA*mA*mU*mA*mU*C*T*G*C*T*G*C*C*C*A*mC*mC*mU*mU*mC (mA*mA*mU*mA*mU*dC*dT*dG*dC*dT*dG*dC*dC*dC*dA*mC*mC*mU*mU*mC; antisense) [[CDKN2B-AS1]832]”, the “TLR9-500 nM: averaged NF-κB-Luciferase relative to ODN2006” value worked out at 70.72%.

In the case of “mA*mA*mU*mU*mU*A*A*A*G*C*A*T*G*A*A*mU*mA*mU*mU*mA (mA*mA*mU*mU*mU*dA*dA*dA*dG*dC*dA*dT*dG*dA*dA*mU*mA*mU*mU*mA) [[CDKN2B-AS1]645]”, the “TLR9-500 nM: averaged NF-κB-Luciferase relative to ODN2006” value worked out at 53.26%.

On to “mA*mC*mC*mC*mU*T*C*T*C*T*C*T*G*G*T*mC*mC*mC*mA*mU (mA*mC*mC*mC*mU*dT*dC*dT*dC*dT*dC*dT*dG*dG*dT*mC*mC*mC*mA*mU; antisense) [[LINC-PINT]115]”, for which the “TLR9-500 nM: averaged NF-κB-Luciferase relative to ODN2006” value was 32.00%.

“mA*mG*mA*mA*mA*G*A*A*G*C*A*A*A*G*A*mU*mU*mC*mA*mA (AGAAAGAAGCAAAGAUUCAA; sugars from the 5' end m5 d10 m5, all phosphorothioate, methylation of C not given here) [[CDKN2B-AS1]1519]”: the “TLR9-500 nM: averaged NF-κB-Luciferase relative to ODN2006” value is on record as 68.12%.

“mA*mG*mA*mU*mU*A*T*C*T*T*C*T*T*T*T*mA*mA*mU*mU*mU (AGAUUATCTTCTTTTAAUUU; sugars from the 5' end m5 d10 m5, all phosphorothioate, methylation of C not given here) [[CDKN2B-AS1]2130]”: the “TLR9-500 nM: averaged NF-κB-Luciferase relative to ODN2006” value is given as 78.72%.

Regarding “mA*mG*mC*mC*mG*A*A*C*A*G*A*A*G*G*A*mG*mC*mG*mU*mC (AGCCGAACAGAAGGAGCGUC; sugars from the 5' end m5 d10 m5, all phosphorothioate, methylation of C not given here) [[LINC-PINT]587 KL]”, the “TLR9-500 nM: averaged NF-κB-Luciferase relative to ODN2006” value is 57.46%.

“mA*mG*mG*mA*mU*T*A*A*A*A*C*A*G*A*T*mU*mA*mA*mU*mA (mA*mG*mG*mA*mU*dT*dA*dA*dA*dA*dC*dA*dG*dA*dT*mU*mA*mA*mU*mA) [[CDKN2B-AS1] 1775]”: the “TLR9-500 nM: averaged NF-κB-Luciferase relative to ODN2006” value amounted to 63.48%.

As to “mA*mG*mG*mC*mC*T*C*C*A*G*T*G*T*C*T*mU*mC*mU*mC*mC (mA*mG*mG*mC*mC*dT*dC*dC*dA*dG*dT*dG*dT*dC*dT*mU*mC*mU*mC*mC; antisense) [[CDKN2B-AS1]2218]”, the “TLR9-500 nM: averaged NF-κB-Luciferase relative to ODN2006” value came to 81.24%.

On to “mA*mU*mA*mU*mC*T*G*C*T*G*C*C*C*A*C*mC*mU*mU*mC*mU (AUAUCTGCTGCCCACCUUCU; antisense; sugars from the 5' end m5 d10 m5, all phosphorothioate, methylation of C not given here) [[CDKN2B-AS1]831]”, for which the “TLR9-500 nM: averaged NF-κB-Luciferase relative to ODN2006” value was found to be 73.46%.

Take “mA*mU*mG*mA*mC*A*T*T*T*C*G*T*G*G*C*mU*mC*mC*mU*mA (mA*mU*mG*mA*mC*dA*dT*dT*dT*dC*dG*dT*dG*dG*dC*mU*mC*mC*mU*mA) [[LINC-PINT]524.1]”: the “TLR9-500 nM: averaged NF-κB-Luciferase relative to ODN2006” value is reported as 107.12%.

In the case of “mC*mA*mA*mG*mC*C*C*C*A*G*C*G*T*T*C*mC*mU*mC*mC*mG (mC*mA*mA*mG*mC*dC*dC*dC*dA*dG*dC*dG*dT*dT*dC*mC*mU*mC*mC*mG; antisense) [[LINC-PINT]83.1]”, the “TLR9-500 nM: averaged NF-κB-Luciferase relative to ODN2006” value was found to be 93.79%.

For “mC*mA*mC*mC*mC*T*T*C*T*C*T*C*T*G*G*mU*mC*mC*mC*mA (CACCCTTCTCTCTGGUCCCA; antisense; sugars from the 5' end m5 d10 m5, all phosphorothioate, methylation of C not given here) [[LINC-PINT]116]”, the “TLR9-500 nM: averaged NF-κB-Luciferase relative to ODN2006” value is listed as 102.85%.
